Experimental data as given in patent publication US12479848B2, “Substituted fused heteroaromatic bicyclic compounds as kinase inhibitors and the use thereof” (IMPACT THERAPEUTICS (SHANGHAI), INC, priority 2019, dated 2025).
pIC50: −log10 of the molar value. Like-named read-outs stand apart in the source and are kept apart here.

How the values were obtained:
ATR/ATRIP enzyme = target: T1, ATR/ATRIP enzyme (Homo sapiens, UniProt Q13535); experiment: ATR enzyme activity experiment (HTRF); type: biochemical
T1 construct: purchased Eurofins 14-953
T1 sequence (Q13535 whole entry): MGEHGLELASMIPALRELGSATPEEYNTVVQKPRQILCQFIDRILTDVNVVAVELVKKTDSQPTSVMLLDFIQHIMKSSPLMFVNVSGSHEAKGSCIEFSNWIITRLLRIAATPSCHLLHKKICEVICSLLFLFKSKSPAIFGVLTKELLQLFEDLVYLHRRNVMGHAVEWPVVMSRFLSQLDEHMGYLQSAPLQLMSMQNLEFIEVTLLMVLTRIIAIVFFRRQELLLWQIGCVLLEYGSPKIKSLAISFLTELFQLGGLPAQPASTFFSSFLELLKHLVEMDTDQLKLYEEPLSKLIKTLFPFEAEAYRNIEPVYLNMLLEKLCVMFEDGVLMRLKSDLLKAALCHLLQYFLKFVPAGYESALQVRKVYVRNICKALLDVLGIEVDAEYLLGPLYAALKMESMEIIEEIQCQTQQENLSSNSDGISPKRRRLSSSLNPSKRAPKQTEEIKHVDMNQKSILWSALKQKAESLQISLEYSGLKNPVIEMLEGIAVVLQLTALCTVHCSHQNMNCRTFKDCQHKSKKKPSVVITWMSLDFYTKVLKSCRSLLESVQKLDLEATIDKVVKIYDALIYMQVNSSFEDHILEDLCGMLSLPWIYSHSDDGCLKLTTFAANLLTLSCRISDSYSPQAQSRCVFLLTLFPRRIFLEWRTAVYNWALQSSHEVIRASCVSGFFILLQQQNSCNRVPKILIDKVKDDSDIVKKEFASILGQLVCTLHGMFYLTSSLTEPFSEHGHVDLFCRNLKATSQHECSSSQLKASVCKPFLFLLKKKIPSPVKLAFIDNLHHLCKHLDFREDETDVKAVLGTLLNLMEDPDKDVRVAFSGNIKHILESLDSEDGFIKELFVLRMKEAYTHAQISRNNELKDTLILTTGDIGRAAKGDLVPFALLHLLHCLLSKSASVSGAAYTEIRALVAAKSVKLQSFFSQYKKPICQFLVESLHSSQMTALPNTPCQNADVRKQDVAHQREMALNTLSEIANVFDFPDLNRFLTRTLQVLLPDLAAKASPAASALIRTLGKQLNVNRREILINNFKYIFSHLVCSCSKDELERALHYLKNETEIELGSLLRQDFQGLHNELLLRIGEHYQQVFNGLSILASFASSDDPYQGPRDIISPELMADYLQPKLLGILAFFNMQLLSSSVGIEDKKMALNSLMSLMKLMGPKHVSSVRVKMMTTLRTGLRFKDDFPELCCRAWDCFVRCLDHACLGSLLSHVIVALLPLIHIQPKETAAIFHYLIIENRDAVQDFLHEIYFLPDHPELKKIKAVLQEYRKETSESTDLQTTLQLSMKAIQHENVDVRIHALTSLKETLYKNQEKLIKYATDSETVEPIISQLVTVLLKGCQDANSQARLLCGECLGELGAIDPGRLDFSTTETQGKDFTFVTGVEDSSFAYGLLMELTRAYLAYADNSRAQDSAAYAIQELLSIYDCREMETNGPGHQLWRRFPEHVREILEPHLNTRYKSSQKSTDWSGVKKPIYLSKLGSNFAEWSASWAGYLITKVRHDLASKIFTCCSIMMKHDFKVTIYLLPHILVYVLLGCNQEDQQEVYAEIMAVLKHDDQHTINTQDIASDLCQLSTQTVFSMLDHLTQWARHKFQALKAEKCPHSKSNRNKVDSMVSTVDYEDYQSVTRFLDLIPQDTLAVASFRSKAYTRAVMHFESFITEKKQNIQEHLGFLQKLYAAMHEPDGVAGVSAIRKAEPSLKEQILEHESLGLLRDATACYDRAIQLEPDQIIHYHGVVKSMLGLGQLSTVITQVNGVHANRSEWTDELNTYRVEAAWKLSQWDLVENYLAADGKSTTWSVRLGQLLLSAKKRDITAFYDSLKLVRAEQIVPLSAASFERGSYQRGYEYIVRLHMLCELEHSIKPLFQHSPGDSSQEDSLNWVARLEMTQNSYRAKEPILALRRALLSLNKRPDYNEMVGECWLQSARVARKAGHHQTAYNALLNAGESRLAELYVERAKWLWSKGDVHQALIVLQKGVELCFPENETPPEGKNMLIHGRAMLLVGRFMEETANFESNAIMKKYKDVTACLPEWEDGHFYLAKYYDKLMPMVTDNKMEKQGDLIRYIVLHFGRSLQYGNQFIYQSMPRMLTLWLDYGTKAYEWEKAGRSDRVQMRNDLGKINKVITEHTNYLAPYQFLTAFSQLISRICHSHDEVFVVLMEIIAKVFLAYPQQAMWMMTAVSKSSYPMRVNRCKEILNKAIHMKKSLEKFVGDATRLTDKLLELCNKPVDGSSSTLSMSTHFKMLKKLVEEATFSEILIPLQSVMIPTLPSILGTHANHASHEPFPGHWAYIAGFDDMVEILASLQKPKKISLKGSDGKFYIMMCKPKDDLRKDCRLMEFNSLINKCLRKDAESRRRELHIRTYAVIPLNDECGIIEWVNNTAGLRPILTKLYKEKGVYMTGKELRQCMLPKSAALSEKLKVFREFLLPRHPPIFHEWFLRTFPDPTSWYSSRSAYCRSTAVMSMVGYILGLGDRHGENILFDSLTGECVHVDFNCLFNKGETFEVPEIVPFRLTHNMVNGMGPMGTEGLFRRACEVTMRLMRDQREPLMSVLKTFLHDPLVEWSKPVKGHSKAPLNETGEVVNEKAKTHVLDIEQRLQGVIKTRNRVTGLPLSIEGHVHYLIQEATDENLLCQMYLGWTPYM
T1 sequence (Q8WXE1 whole entry partner): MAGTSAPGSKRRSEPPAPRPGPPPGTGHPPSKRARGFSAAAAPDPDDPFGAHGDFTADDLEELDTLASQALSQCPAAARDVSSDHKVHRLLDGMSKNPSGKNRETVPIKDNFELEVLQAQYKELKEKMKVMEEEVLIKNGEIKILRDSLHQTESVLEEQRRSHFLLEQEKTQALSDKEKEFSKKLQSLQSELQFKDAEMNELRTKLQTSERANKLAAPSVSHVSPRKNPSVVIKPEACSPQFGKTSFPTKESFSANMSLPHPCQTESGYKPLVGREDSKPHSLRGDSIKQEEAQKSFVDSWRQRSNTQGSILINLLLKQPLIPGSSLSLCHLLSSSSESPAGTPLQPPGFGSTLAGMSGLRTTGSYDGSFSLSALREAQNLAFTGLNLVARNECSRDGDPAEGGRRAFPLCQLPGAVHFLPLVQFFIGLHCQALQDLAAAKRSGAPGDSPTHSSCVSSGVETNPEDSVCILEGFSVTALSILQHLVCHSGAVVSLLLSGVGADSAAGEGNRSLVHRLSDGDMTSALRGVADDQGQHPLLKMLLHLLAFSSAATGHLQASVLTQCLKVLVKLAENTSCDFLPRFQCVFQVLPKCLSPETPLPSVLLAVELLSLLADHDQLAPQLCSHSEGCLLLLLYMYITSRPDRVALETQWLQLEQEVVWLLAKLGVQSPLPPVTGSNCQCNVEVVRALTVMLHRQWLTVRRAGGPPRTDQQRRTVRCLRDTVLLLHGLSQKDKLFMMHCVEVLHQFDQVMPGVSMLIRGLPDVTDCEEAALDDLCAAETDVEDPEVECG
Protocol: The test compound was diluted to a 4× final concentration with reaction buffer (25 mM HEPES (pH8.0), 10 mM MnCl2, 1% glycerol, 0.01% Brij-35, 5 mM DTT and 0.1% BSA). […] The mixture was centrifuged at 1000 rpm for 1 minute, and reacted at room temperature protected from light for 30 minutes. Then 5 μL of EDTA stop solution (250 mM) was added to stop the reaction. […] Data were analyzed using GraphPad Prism6.0, and fitted using the curve equation: Y=Bottom+(Top−Bottom)/(1+10^((Log IC50−X)*HillSlope)) and IC50 values were calculated.

[1] = test system: human prostate cancer cell DU145; experiment: MTT proliferation assay, DU145; type: cell-based; settings: for IC50: Homo sapiens, DU-145, 96 h, 4 days, read-out: IC50 (nM), inhibition of proliferation of DU145
Protocol: The cells were digested by trypsinase and centrifuged at 800 rpm for 5 minutes, the supernatant was discarded, and the residual was resuspended with fresh medium (DMEM medium+10% FBS+non-essential amino acid) and counted. The cells were seeded into 96-well cell culture plate with a density of 2000 cells per well and incubated overnight in a 5% CO2 incubator at 37° C. […] 5 μL of each concentration was added to 120 μL of medium (25 times diluted) and mixed by shaking. The overnight cell plates were taken and the culture medium was removed, 195 μL of fresh medium was added to each well, and 5 μL of diluted medium containing the corresponding concentration of the test compound was added respectively (the final concentrations of compounds are shown in Table 3, the final concentration of DMSO is 1%), and the culture plate was then placed in a 5% CO2 incubator at 37° C. for 4 days. After removing the original solution, 100 μL of fresh serum-free DMEM medium containing MTT (0.5 mg/mL) was added to each well, the culture was continued. […] GraphPad Prism 6.0 was used to analyze the data. The inhibitory activity of compounds on cell proliferation was plotted based on cell viability and the logarithm of compound concentration. Cell viability %=(ODcompound−ODbackground)/(ODDMSO−ODbackground)×100.

[2] = test system: human lung cancer cell NCI-H460; experiment: MTT proliferation assay, NCI-H460; type: cell-based; settings: for IC50: Homo sapiens, NCI-H460, 96 h, 4 days, read-out: IC50 (nM), inhibition of proliferation of NCI-H460
Protocol: (§1) The cells were seeded into 96-well cell culture plate with a density of 2000/4000 cells per well and incubated overnight in a 5% CO2 incubator at 37° C. […] 5 L diluent of each concentration was added to 120 μL of medium (25 times diluted) and mixed by shaking. The overnight cell plates were taken and the culture medium was removed, 195 μL of fresh medium was added to each well, and 5 μL of diluted medium containing the corresponding concentration of the test compound was added respectively (the final concentration of DMSO is 1%), and the culture plate was then placed in a 5% CO2 incubator at 37° C. for 4 days. After removing the original solution, 100 μL of fresh serum-free DMEM medium containing MTT (0.5 mg/mL) was added to each well, the culture was continued. […] Cell viability (%)=(ODcompound−ODbackground)/(ODDMSO−ODbackground)×100. GraphPad Prism 6.0 was used to analyze the data. The inhibitory activity of compounds on cell proliferation was plotted based on cell viability and the logarithm of compound concentration.

[3] = test system: human colon cancer cell LoVo; experiment: MTT proliferation assay, LoVo; type: cell-based; settings: for IC50: Homo sapiens, LoVo, 96 h, 4 days, read-out: IC50 (nM), inhibition of proliferation of LoVo
Protocol: as §1, with “5 μL” for “5 L”, “viability (%)=(ODcompound−ODbackground)/(ODDMSO-ODbackground)×100.” for “viability (%)=(ODcompound−ODbackground)/(ODDMSO−ODbackground)×100.”

[4] = HTRF, p53 substrate, 30 minutes at room temperature

SMILES	IC50 [1] [nM]	IC50 [2] [nM]	pIC50 (ATR/ATRIP enzyme; [4])	IC50 [3] [nM]	further results
C[C@@H]1COCCN1c1cc(-c2ccnn2C)c2ncc(-c3ccn[nH]3)n2n1 [Example 2, (R)-3-methyl-4-(8-(1-methyl-1H-pyrazol-5-yl)-3-(1H-pyrazol-5-yl)imidazo[1,2-b]pyridazin-6-yl)morpholine]	1220	907	–	–	IC50 (ATR/ATRIP enzyme; read-out: IC50 (nM), inhibitory effects on ATR kinase activity, HTRF, p53 substrate, 30 minutes at room temperature): 938 nM; inhibitory effect on the proliferation of DU145 cell (in words) [1]: inhibitory effect; inhibitory effect on the proliferation of NCI-H460 cell (in words) [2]: inhibitory effect; inhibitory effect on the proliferation of LoVo cell (in words) [3]: inhibitory effect
CCn1nccc1-c1cc(N2CCOC[C@H]2C)nn2c(-c3ccn[nH]3)cnc12 [Example 3, (R)-3-methyl-4-(8-(1-ethyl-1H-pyrazol-5-yl)-3-(1H-pyrazol-5-yl)imidazo[1,2-b]pyridazin-6-yl)morpholine]	1100	1040	–	–	–
CC(C)n1nccc1-c1cc(N2CCOC[C@H]2C)nn2c(-c3ccn[nH]3)cnc12 [Example 4, (R)-3-methyl-4-(8-(1-isopropyl-1H-pyrazol-5-yl)-3-(1H-pyrazol-5-yl)imidazo[1,2-b]pyridazin-6-yl)morpholine]	1090	531	–	–	–
Cc1ccc(-c2cc(N3CCOC[C@H]3C)nn3c(-c4ccn[nH]4)cnc23)cn1 [Example 6, (R)-3-methyl-4-(8-(6-methylpyridin-3-yl)-3-(1H-pyrazol-5-yl)imidazo[1,2-b]pyridazin-6-yl)morpholine]	914	322	–	–	–
C[C@@H]1COCCN1c1cc(-c2ccc(S(C)(=O)=O)cc2)c2ncc(-c3ccn[nH]3)n2n1 [Example 7, (R)-3-methyl-4-(8-(4-(methylsulfonyl)phenyl)-3-(1H-pyrazol-5-yl)imidazo[1,2-b]pyridazin-6-yl)morpholine]	1200	864	–	–	–
C[C@@H]1COCCN1c1cc(-c2ccccc2F)c2ncc(-c3ccn[nH]3)n2n1 [Example 8, (R)-3-methyl-4-(8-(2-fluorophenyl)-3-(1H-pyrazol-5-yl)imidazo[1,2-b]pyridazin-6-yl)morpholine]	1110	409	–	–	–
C[C@@H]1COCCN1c1cc(N2CCOCC2)c2ncc(-c3ccn[nH]3)n2n1 [Example 9, (R)-3-methyl-4-(8-morpholino-3-(1H-pyrazol-5-yl)imidazo[1,2-b]pyridazin-6-yl)morpholine]	1630	583	–	–	–
C[C@@H]1CN(c2cc(N3CCOC[C@H]3C)nn3c(-c4ccn[nH]4)cnc23)C[C@H](C)O1 [Example 10, (2S,6R)-2,6-dimethyl-4-(6-((R)-3-methylmorpholino)-3-(1H-pyrazol-5-yl)imidazo[1,2-b]pyridazin-8-yl)morpholine]	2300	1110	–	–	–
C[C@@H]1COCCN1c1cc(-c2ccnn2C)n2ncc(-c3ccn[nH]3)c2n1 [Example 16, (R)-3-methyl-4-(7-(1-methyl-1H-pyrazol-5-yl)-3-(1H-pyrazol-5-yl)pyrazolo[1,5-a]pyrimidin-5-yl)morpholine]	1370	527	–	–	–

These reach a lower IC50 [2]. Values come first.

IC50 [1] [nM]	IC50 [2] [nM]	pIC50 (ATR/ATRIP enzyme; [4])	IC50 [3] [nM]	SMILES	further results
–	17.4	8.70	21.8	Cc1ccccc1-c1cc(N2CCOC[C@H]2C)nn2c(-c3ccn[nH]3)ncc12 [Example 40, (R)-4-(7-(1H-pyrazol-5-yl)-4-(o-tolyl)imidazo[1,5-b]pyridazin-2-yl)-3-methylmorpholine]	–
–	48.8	8.70	49.5	Cc1cnn(C)c1-c1cc(N2CCOC[C@H]2C)nn2c(-c3ccn[nH]3)ncc12 [Example 41, (R)-4-(4-(1,4-dimethyl-1H-pyrazol-5-yl)-7-(1H-pyrazol-5-yl)imidazo[1,5-b]pyridazin-2-yl)-3-methylmorpholine]	–
–	30.6	8.70	44.7	Cc1ncccc1-c1cc(N2CCOC[C@H]2C)nn2c(-c3ccn[nH]3)ncc12 [Example 42, (R)-3-methyl-4-(4-(2-methylpyridin-3-yl)-7-(1H-pyrazol-5-yl)imidazo[1,5-b]pyridazin-2-yl)morpholine]	–
–	18.2	7.92	23.1	C[C@@H]1COCCN1c1cc(-c2ccncc2F)c2cnc(-c3ccn[nH]3)n2n1 [Example 43, (R)-4-(4-(3-fluoropyridin-4-yl)-7-(1H-pyrazol-5-yl)imidazo[1,5-b]pyridazin-2-yl)-3-methylmorpholine]	–
–	289	–	138	Cc1cc(S(C)(=O)=O)ncc1-c1cc(N2CCOC[C@H]2C)nn2c(-c3ccn[nH]3)ncc12 [Example 44, (R)-3-methyl-4-(4-(4-methyl-6-(methylsulfonyl)pyridin-3-yl)-7-(1H-pyrazol-5-yl)imidazo[1,5-b]pyridazin-2-yl)morpholine]	inhibition at 0.05 µM (ATR/ATRIP enzyme; read-out: Inh %, inhibitory effects on ATR kinase activity at 50 nM): 58%
–	78.8	8.30	84.2	Cc1ncncc1-c1cc(N2CCOC[C@H]2C)nn2c(-c3ccn[nH]3)ncc12 [Example 45, (R)-3-methyl-4-(4-(4-methylpyrimidin-5-yl)-7-(1H-pyrazol-5-yl)imidazo[1,5-b]pyridazin-2-yl)morpholine]	–
–	77.8	7.92	72.8	C[C@@H]1COCCN1c1cc(N2CCOCC2)c2cnc(-c3ccn[nH]3)n2n1 [Example 46, (R)-3-methyl-4-(4-morpholino-7-(1H-pyrazol-5-yl)imidazo[1,5-b]pyridazin-2-yl)morpholine]	–
–	18.2	9.00	20.7	C[C@@H]1COCCN1c1cc(-c2cccnc2C(F)(F)F)c2cnc(-c3ccn[nH]3)n2n1 [Example 47, (R)-4-(7-(1H-pyrazol-5-yl)-4-(2-(trifluoromethyl)pyridin-3-yl)imidazo[1,5-b]pyridazin-2-yl)-3-methylmorpholine]	–
–	156	7.96	133	Cc1nc(S(C)(=O)=O)ccc1-c1cc(N2CCOC[C@H]2C)nn2c(-c3ccn[nH]3)ncc12 [Example 48, (R)-3-methyl-4-(4-(2-methyl-6-(methylsulfonyl)pyridin-3-yl)-7-(1H-pyrazol-5-yl)imidazo[1,5-b]pyridazin-2-yl)morpholine]	–
–	43	8.22	32.9	Cc1cc(S(C)(=O)=O)ccc1-c1cc(N2CCOC[C@H]2C)nn2c(-c3ccn[nH]3)ncc12 [Example 49, (R)-3-methyl-4-(4-(2-methyl-4-(methylsulfonyl)phenyl)-7-(1H-pyrazol-5-yl)imidazo[1,5-b]pyridazin-2-yl)morpholine]	–
–	86.8	7.80	59.9	Cc1nc([S+](C)[O-])ccc1-c1cc(N2CCOC[C@H]2C)nn2c(-c3ccn[nH]3)ncc12 (stereo partly drawn) [Example 50, (3R)-3-methyl-4-(4-(2-methyl-6-(methylsulfinyl)pyridin-3-yl)-7-(1H-pyrazol-5-yl)imidazo[1,5-b]pyridazin-2-yl)morpholine]	–
–	26.3	8.05	41.9	C[C@@H]1COCCN1c1cc(-c2cccc(C#N)c2)c2cnc(-c3ccn[nH]3)n2n1 [Example 52, (R)-3-(2-(3-methylmorpholino)-7-(1H-pyrazol-5-yl)imidazo[1,5-b]pyridazin-4-yl)benzonitrile]	–
